Among the test systems are HCC-2998 colon; RPMI-8226 leukemia; COLO 205 colon; SK-MEL-2 melanoma; RXF 393 renal; IGROV1 ovarian; CAKI-1 renal; 786-0 renal; PC-3 prostate; T-47D breast.
Holding throughout (assay): growth of human tumour cells (NCI), 48 h

SMILES strings stand for the structures. “And” between values parts separate entries of the source, which are not always exact repeats. Equal values may be shown once.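 Interpolation was linear, between the two tested concentrations surrounding the appropriate level; five concentrations were tested over 48 hours in 96-well plates. GI50: concentration for 50% inhibition of growth. TGI denotes the concentration required for complete inhibition of growth.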 Some results are limits rather than exact numbers.

For `CC(=O)OCC1OC(n2c(=S)n(-c3ccccc3)c(=O)c3cc(Br)cc(Br)c32)C(OC(C)=O)C(OC(C)=O)C1OC(C)=O` (stereo not drawn), the TGI in the experiment with HCC-2998 colon was greater than 100 µM; with RPMI-8226 leukemia, greater than 100 µM; in the experiment on COLO 205 colon, greater than 100 µM; in the experiment with SK-MEL-2 melanoma, greater than 100 µM; in the experiment with RXF 393 renal, 76.3 µM and > 100 µM; in the experiment with IGROV1 ovarian it was greater than 100 µM. The TGI in the experiment on CAKI-1 renal and in the experiment on 786-0 renal was greater than 100 µM throughout. The GI50 with RPMI-8226 leukemia was 33.3 µM; with RXF 393 renal, 19.4 µM and 64.2 µM; in the experiment on IGROV1 ovarian, 35.8 µM and > 100 µM; in the experiment on 786-0 renal, 25.7 µM and 98.7 µM.

As to `O=C(/C=C(\[O-])c1ccccc1)CCCCCCC(=O)/C=C(\[O-])c1ccccc1.O=C(/C=C(\[O-])c1ccccc1)CCCCCCC(=O)/C=C(\[O-])c1ccccc1.O=C(/C=C(\[O-])c1ccccc1)CCCCCCC(=O)/C=C(\[O-])c1ccccc1.[Nd+3].[Nd+3]`, the GI50 in the experiment on HCC-2998 colon was greater than 50 µM; in the experiment on RPMI-8226 leukemia, 43.2 µM; in the experiment with COLO 205 colon, greater than 50 µM; in the experiment on SK-MEL-2 melanoma, greater than 50 µM; in the experiment on IGROV1 ovarian it was greater than 50 µM; with CAKI-1 renal, greater than 50 µM. For the same compound, in the experiment on 786-0 renal, the GI50 was greater than 50 µM. Besides, the TGI with HCC-2998 colon, in the experiment with RPMI-8226 leukemia, with COLO 205 colon, in the experiment with SK-MEL-2 melanoma, in the experiment on IGROV1 ovarian and with CAKI-1 renal was greater than 50 µM throughout. Besides, the TGI in the experiment with 786-0 renal was greater than 50 µM.

Take `Nc1ncc(C2[C@H](CNC(=O)c3cc(Br)c[nH]3)C(CNC(=O)c3cc(Br)c[nH]3)[C@@H]2c2cnc(N)[nH]2)[nH]1` (stereo partly drawn): the GI50 in the experiment on HCC-2998 colon, with RPMI-8226 leukemia, in the experiment on SK-MEL-2 melanoma, in the experiment with PC-3 prostate, in the experiment on IGROV1 ovarian and in the experiment with CAKI-1 renal was greater than 50 µM each time. Besides, the GI50 in the experiment on 786-0 renal was greater than 50 µM. For the same compound, the TGI in the experiment on HCC-2998 colon, with RPMI-8226 leukemia, in the experiment with SK-MEL-2 melanoma, in the experiment with PC-3 prostate, in the experiment with IGROV1 ovarian and in the experiment on CAKI-1 renal was greater than 50 µM in each case. This compound had a TGI in the experiment on 786-0 renal greater than 50 µM.

As for `Nc1nc(=S)[nH]c(C(=O)Nc2nccs2)c1-c1ccccc1`, the TGI in the experiment with HCC-2998 colon, with RPMI-8226 leukemia, in the experiment with COLO 205 colon, with SK-MEL-2 melanoma, in the experiment with RXF 393 renal and in the experiment on IGROV1 ovarian was greater than 100 µM in each case. Moreover, the TGI in the experiment with CAKI-1 renal and with 786-0 renal was greater than 100 µM throughout.

For the compound `CN(C)c1ccc(O[Si](Oc2ccc(N(C)C)cc2)(Oc2ccc(N(C)C)cc2)Oc2ccc(N(C)C)cc2)cc1`, the TGI in the experiment with HCC-2998 colon, in the experiment with RPMI-8226 leukemia, in the experiment on COLO 205 colon, in the experiment on IGROV1 ovarian, in the experiment with CAKI-1 renal and in the experiment on 786-0 renal was greater than 100 µM throughout.

As for `Clc1ccc2c(NCCCN3CCN(c4nc(N5CCOCC5)nc5ccccc45)CC3)ccnc2c1`, the GI50 in the experiment with HCC-2998 colon was 1.77 µM; in the experiment with RPMI-8226 leukemia, 1.15 µM; in the experiment with COLO 205 colon, 1.66 µM; in the experiment on SK-MEL-2 melanoma, 1.87 µM; in the experiment on RXF 393 renal it was 1.65 µM; with 786-0 renal, 1.59 µM. In the experiment with T-47D breast, the GI50 was 2.32 µM. The TGI in the experiment with HCC-2998 colon amounted to 3.28 µM; in the experiment on RPMI-8226 leukemia, 3.46 µM; in the experiment on COLO 205 colon, 3.32 µM; in the experiment with SK-MEL-2 melanoma, 3.49 µM; with RXF 393 renal, 3.1 µM; with 786-0 renal, 3.03 µM. The same compound gave a TGI with T-47D breast of 5.09 µM.

Consider `O=C(N/N=C/c1ccc(F)cc1)c1ccc(C(F)(F)F)nc1Nc1cccc(C(F)(F)F)c1`, for which the GI50 was 0.902 µM with HCC-2998 colon; 1.07 µM in the experiment with RPMI-8226 leukemia; 1.56 µM in the experiment on COLO 205 colon; 0.457 µM in the experiment on RXF 393 renal; 1.68 µM in the experiment on IGROV1 ovarian; 0.34 µM in the experiment with CAKI-1 renal. Moreover, the GI50 in the experiment on 786-0 renal was 0.691 µM; in the experiment on T-47D breast, 1.02 µM. Moreover, the TGI worked out at 4.96 µM in the experiment with HCC-2998 colon; 3.34 µM with RPMI-8226 leukemia; 3.47 µM in the experiment on COLO 205 colon; 2.72 µM in the experiment with RXF 393 renal; 4.84 µM in the experiment with IGROV1 ovarian; 2.32 µM in the experiment with CAKI-1 renal. Moreover, the TGI in the experiment with 786-0 renal came out at 4.62 µM; with T-47D breast it was 4.39 µM.

Turning to `COC(=O)c1sc(=NC(=S)N2CCCCC2)sc1C(=O)OC`, the TGI in the experiment with HCC-2998 colon, in the experiment with RPMI-8226 leukemia, in the experiment with COLO 205 colon, in the experiment on SK-MEL-2 melanoma, in the experiment with RXF 393 renal and in the experiment on IGROV1 ovarian was greater than 100 µM throughout. Moreover, the TGI in the experiment with CAKI-1 renal and with 786-0 renal was greater than 100 µM throughout.

Consider `NNC(=O)N/N=C1\CN(c2ccc(Cl)cc2Cl)C(=O)C(=O)C1c1nc2ccccc2o1` (stereo not drawn), for which the TGI in the experiment on HCC-2998 colon, with RPMI-8226 leukemia, in the experiment with COLO 205 colon, with SK-MEL-2 melanoma, in the experiment on IGROV1 ovarian and in the experiment on CAKI-1 renal was greater than 100 µM in each case. Further, the TGI with 786-0 renal was greater than 100 µM.

On to `COc1ccc(C(=O)O/N=C2/CCCCC2CN(C)C)cc1` (stereo not drawn), for which the TGI in the experiment with HCC-2998 colon, in the experiment on RPMI-8226 leukemia, in the experiment with COLO 205 colon, with SK-MEL-2 melanoma, with RXF 393 renal and in the experiment on IGROV1 ovarian was greater than 100 µM in each case. Also, the TGI in the experiment on CAKI-1 renal and with 786-0 renal was greater than 100 µM each time.

Regarding `CC1CC(C)C(C(O)CC2CC(=O)N(c3ccccc3)C(=O)C2)C(O)C1` (stereo not drawn), the TGI in the experiment with HCC-2998 colon, with RPMI-8226 leukemia, in the experiment with COLO 205 colon, in the experiment on RXF 393 renal, in the experiment on IGROV1 ovarian and with CAKI-1 renal was greater than 100 µM in each case. Besides, the TGI with 786-0 renal is greater than 100 µM.

As to `O=C(CC1=Nc2nnc(-c3nnc4n3C(=O)C(CC(=O)C3CC3)=N4)n2C1=O)C1CC1`, the TGI in the experiment on HCC-2998 colon, in the experiment on RPMI-8226 leukemia, in the experiment with COLO 205 colon, in the experiment on SK-MEL-2 melanoma, in the experiment on RXF 393 renal and in the experiment with IGROV1 ovarian was greater than 100 µM throughout. Moreover, the TGI in the experiment with CAKI-1 renal and in the experiment on 786-0 renal was greater than 100 µM each time.

In the case of `c1ccc2c3c([nH]c2c1)C1C2CCCCN2C(c2ccncc2)N1CC3` (stereo not drawn), the TGI is 87.3 µM in the experiment on RPMI-8226 leukemia; greater than 100 µM in the experiment with COLO 205 colon; greater than 100 µM with SK-MEL-2 melanoma; 83.4 µM with RXF 393 renal; greater than 100 µM in the experiment with CAKI-1 renal; greater than 100 µM in the experiment on 786-0 renal.

Values taken from PubChem BioAssay (NCI).
